# Values quoted from earlier work as cited in patent publication US10645923B2, “Insect bait” (priority 2010, dated 2020).
# Tests used:
# V. Germanica = settings: hydramethylnon 2%, after 72 hours
# wasps [1] = settings: fipronil versus sulfluramid; faster acting
# wasps [2] = settings: beef baited with fipronil, North West Patagonia (Argentina)
# Vespula spp. = settings: treated areas
Compound,reduction of wasp populations (V. Germanica) [%],concentration factor lower than sulfluramid at equal toxicity (wasps [1]) [times],reduction of wasp densities (wasps [2]),reduction of colony activity (Vespula spp.) [%]
CC1(C)CNC(=NN=C(/C=C/c2ccc(C(F)(F)F)cc2)/C=C/c2ccc(C(F)(F)F)cc2)NC1 [hydramethylnon],54,–,–,–
N#Cc1nn(-c2c(Cl)cc(C(F)(F)F)cc2Cl)c(N)c1[S+]([O-])C(F)(F)F (stereo not shown) [Fipronil],–,1000,80-100%,99.7
